Assay results as given in article PMC6270814, “Effects of Ursolic Acid Derivatives on Caco-2 Cells and Their Alleviating Role in Streptozocin-Induced Type 2 Diabetic Rats” (Molecules, 2014).

Legend:
Caco-2 cells [1] = experiment: MTT cytotoxicity assay on Caco-2 cells; type: cell-based, Human; settings: Homo sapiens, 24 h, mean ± SD, n = 4, read-out: Inhibition Rate %
Protocol: (§1) Human intestinal Caco-2 cells (ATCC, Rockville, MD, USA) were incubated at 37 °C in a humidified atmosphere of 5% CO2 in air. The cells were cultured in Dulbecco’s […] medium (DMEM) with 10% heat-inactivated fetal bovine serum, 1% non-essential amino acids, 1% L-glutamine, 1% penicillin/streptomycin (Gibco Life Technologies, Grand Island, NY, USA). The cells were sub-cultured at confluence by 0.05% trypsin-0.5 mM EDTA treatment before they were applied in the experiment.
(§2) A MTT test was conducted to determine the possible toxicity of UA and its derivatives to Caco-2 cells. Briefly, cells were seeded at a density of 1 × 10^4 cells/mL in a 96-well plate and incubated for 24 h. The next day, cells were incubated with vehicle (0.1% DMSO) and compounds at 100, 50, 25, 12.5 μmol/L for 24 h, and then 5 g/L MTT solution (20 μL) was added for 4 h. Absorbance at 570 nm was measured using a Multimodel Plate Reader (Infinite 200, Tecan, Mannedorf, Switzerland).

[2] = MTT cytotoxicity assay on Caco-2 cells; type: cell-based, Human; settings: human
Protocol: as §1, §2

[3] = system: STZ-induced diabetic rats; experiment: Oxidative stress markers (GSH, SOD, MDA) in liver and kidney of STZ-induced diabetic rats; type: in vivo, rat; settings: 4 weeks
Protocol: (§3) Diabetes was induced by a single intraperitoneal injection of streptozotocin (Sigma-Aldrich, St. Louis, MO, USA) at a dose of 65 mg/kg body weight. STZ was dissolved in 0.1 M cold citrate buffer, pH 4.5. Control group were injected with citrate buffer alone. After 7 days for the development of diabetes, plasma glucose levels were determined of each rat. Rats with fasting blood glucose (FBG) range of above 16.7 mmol/L were considered as DM rats and were used for further study.
(§4) According to the body weight and plasma glucose levels the rats were divided randomly into seven groups with six rats each and treated as follows: • Group I: Normal rats treated with 0.5% CMC-Na (2 mL/200 g body weight). • Group II: Diabetic rats treated with 0.5% CMC-Na. • Group III: Diabetic rats treated with 10 mg/kg of glibenclamide. • Group IV: Diabetic rats treated with 100 mg/kg of compound 1 (UA). • Group V: Diabetic rats treated with 100 mg/kg of compound 10. • Group VI: Diabetic rats treated with 100 mg/kg of compound 11. • Group VII: Diabetic rats treated with 100 mg/kg of compound 12.
(§5) The treatment was continued daily for 28 days. Blood glucose levels and body weight were measured every week to ascertain the status of diabetes. After 4 weeks of treatment, the animals were fasted for 12 h and sacrificed by cervical dislocation under mild anaesthetization, blood was collected into heparinized tubes and centrifuged at 2,000 rpm for 10 min. Livers and kidneys were removed, washed and homogenized in ice-cold normal saline. This homogenates were centrifuged at 3,000 rpm for 10 min at 4 °C, and the supernatants were collected for the estimate of antioxidant markers.
The tissue homogenates of liver and kidney were used for the estimate of antioxidant markers. Glutathione (GSH) level was measured with 5, 5'-dithiobis-(2-nitrobenzoic acid) (DTNB) as described by Sedlak and Lindsay. Superoxide dismutase (SOD) activity was assessed according to the method of Sinha. Malondialdehyde (MDA) activity was estimated with the thiobarbituric acid method.

Caco-2 cells [4] = experiment: 2-NBDG glucose uptake by Caco-2 cell monolayers, Na+-independent (sodium free buffer); type: cell-based, Human; settings: 100 μM compound, Na+-independent (KCl/K2HPO4 buffer)
Protocol: Caco-2 cells, which were derived from human colon adenocarcinoma, were selected for intestinal absorption studies because these cells express the morphological characteristics and most of the functional properties of differentiated small-intestinal enterocytes. Caco-2 cells were seeded on 24-well plates at the density of 2 × 10^5 cells/well. The medium was changed every 1–2 days, and the culture was carried out for 13 days. Then Caco-2 cells were placed in serum-free media for 24 h and then they were washed twice with Hanks’ balanced salt solution (HBSS, pH 7.5, 140 mM NaCl, 5 mM KCl, 1.2 mM Na2HPO4, 2 mM CaCl2, 1.2 mM MgSO4, 20 mM HEPES, 0.2% bovine serum albumin) before the uptake studies. When a sodium free buffer was required, NaCl and Na2HPO4 were replaced with equal amounts of KCl and K2HPO4, respectively. After washing, the cells were incubated for 15 min at room temperature in HBSS before the commencement of this experiment. The uptake studies were initiated by adding HBSS containing either control or test solution (100 μM) and […] (100 μM) for 30 min at 37 °C. Glucose uptake was stopped by adding twofold volume of ice-cold PBS and the wells were washed with ice-cold PBS three times. Fluorescent intensity was measured by a Multimodel Plate Reader (Tecan Infinity 200) with the 485 nmex and 535 nmemiss filter set before and after adding 2-NBDG. Then the cells were lysed in 200 μL lysis buffer (10 mM Tris-HCl pH = 7.4, 150 mM NaCl, 1% Triton-x-100, 1 mM EDTA, 0.1% SDS) and supplemented immediately before they were processed with 10 μg/mL PMSF. Cells were allowed to lyse on ice, and then vortexed and sonicated. The lysate was used for protein determination, protein concentrations were determined as described by BCA kit (Boster, Wuhan, China) with bovine serum albumin as standard.

[5] = system: STZ-induced diabetic rats; experiment: Body weight and daily food intake of STZ-induced diabetic rats; type: in vivo, rat; settings: compounds 100 mg/kg, glibenclamide 10 mg/kg, oral
Protocol: as §3, §4, §5

[6] = system: STZ-induced diabetic rats; experiment: Fasting blood glucose in STZ-induced diabetic rats, 4 weeks treatment; type: in vivo, rat; settings: STZ diabetic rats
Protocol: Adult male albino rats of Sprague-Dawley rats (180–220 g) were obtained from the Guangdong Medical Lab Animal Center, and maintained under standard laboratory conditions in a temperature (25–30 °C) and light-controlled (12-h light/dark cycle) room with 35%–60% humidity. The animals were acclimatized for 10 days before the experiments and provided with rodent chow and water ad libitum. The investigation was conducted in accordance with the Guide for the Care and Use of Laboratory Animals and approved by the institutional Animal Ethics Committee.
as §3, §4, §5
(§6) Fasting blood glucose levels were estimated on days 0, 7, 14, 28 with the single touch glucometer (Life Scan, Johnson & Johnson Company, New Brunswick, NJ, USA). Serum insulin level was measured by use of a commercial immunoassay kit by enzyme linked immunosorbent assay (Uscn. Life Science Inc., Wuhan, China). Serum total protein, albumin, triglycerides (TG), total cholesterol (TC), high-density lipoprotein cholesterol (HDL-C), and low-density lipoprotein cholesterol (LDL-C) were measured with an automatic biochemical analyzer (Sinnowa D240, Nanjing, China).

[7] = system: STZ-induced diabetic rats; experiment: Serum biochemical parameters (insulin, total protein, albumin) in STZ-induced diabetic rats; type: in vivo, rat; settings: 4 weeks, compounds 100 mg/kg, glibenclamide 10 mg/kg
Protocol: as §3, §4, §5, §6

GLUT-2 = experiment: Western blot of GLUT-2 protein expression in Caco-2 cells; type: cell-based, Human; settings: 100 μM, 6 h
Protocol: Caco-2 cells were cultured on 6-well plates at a density of 1 × 10^6 cells/well for 13 days. The cells were placed in serum-free medium for 24 h prior to the treatment. Then UA and its derivatives (100 μM) were added, after 6 h incubation, the cells were immediately washed three times with ice-cold PBS and lysed in 200 μL lysis buffer. Cells were allowed to lyse on ice, and then scraped, vortexed, sonicated and stored at −80 °C for further analysis. Protein concentrations were determined as described and cell lysate was subjected to western blot analysis. Briefly, proteins with same amount were denatured in sample buffer, separated on 8% SDS-PAGE gel, and transferred onto a polyvinylidene diflouride membrane. The membranes were blocked for 1 h at 37 °C with 10% defatted milk in Tris-buffered saline (10 mM Tris-HCl, pH 7.5 and 137 mM NaCl) containing 0.05% Tween 20 (TBST). Membranes were then incubated overnight at 4 °C in blocking buffer with antibodies for GLUT-2, SGLT-1 and β-actin (EMD, Millipore, Billerica, MA, USA). Membranes were washed with TBST and incubated 1 h with appropriate secondary antibodies. Revelation was performed by using the enhanced chemiluminescence reagent and blue-light sensitive film. Densitometric analysis of films was performed with a Hewlett-Packard scanner equipped with a transparent adaptor and UN-SCAN-IT software.

[8] = system: STZ-induced diabetic rats; experiment: Serum lipid profile (TG, TC, LDL-C, HDL-C) in STZ-induced diabetic rats; type: in vivo, rat; settings: 4 weeks, compounds 100 mg/kg, glibenclamide 10 mg/kg
Protocol: as §3, §4, §5, §6

Row | Structure (SMILES) | inhibition at 100 µM (Caco-2 cells [1]) [%] | viability at 24 h, 100 µM [2] [%] | GSH level in kidney ([3]; kidney of STZ diabetic rats) | SOD level in the liver and kidney ([3]; liver and kidney of STZ diabetic rats) | glucose uptake, % of the control value (Na+-independent) (Caco-2 cells [4]) | daily food intake vs untreated diabetic rats [5] | effect on lowering fasting blood glucose levels ([6]; 100 mg/kg, 4 weeks) | Fasting Blood Glucose Level, Week 0 ([6]; Week 0 (before treatment), compounds 100 mg/kg, glibenclamide 10 mg/kg, n = 6) [mg/dL] | Fasting Blood Glucose Level, Week 1 ([6]; Week 1, compounds 100 mg/kg, glibenclamide 10 mg/kg daily, n = 6) [mg/dL] | Fasting Blood Glucose Level, Week 2 ([6]; Week 2, compounds 100 mg/kg, glibenclamide 10 mg/kg daily, n = 6) [mg/dL] | Fasting Blood Glucose Level, Week 3 ([6]; Week 3, compounds 100 mg/kg, glibenclamide 10 mg/kg daily, n = 6) [mg/dL] | Fasting Blood Glucose Level, Week 4 ([6]; Week 4, compounds 100 mg/kg, glibenclamide 10 mg/kg daily, n = 6) [mg/dL] | serum albumin level vs diabetic control [7] | serum insulin level vs diabetic control [7] | serum total protein level vs diabetic control [7] | effect on expression of protein GLUT-2 (GLUT-2) | serum TC level vs diabetic control [8] | serum TG level vs diabetic control [8]
1 | CC(=O)O[C@H]1CC[C@@]2(C)C(CC[C@]3(C)C2CC=C2C4[C@@H](C)[C@H](C)CC[C@]4(C(=O)Nc4ccccc4F)CC[C@]23C)C1(C)C (stereo partly shown) [Compound 6] | 13.9 ± 4.52 | 86.1 |  |  |  |  |  |  |  |  |  |  |  |  |  |  |  | 
2 | CCCC(=O)O[C@H]1CC[C@@]2(C)C(CC[C@]3(C)C2CC=C2C4[C@@H](C)[C@H](C)CC[C@]4(C(=O)O)CC[C@]23C)C1(C)C (stereo partly shown) [Compound 11] | 2.29 ± 6.08 |  | great effect | great improvement | 74 % of the control value | reduce daily food intake significantly | no significant effect | 318.60 ± 17.64 | 365.40 ± 20.34 | 352.80 ± 27.36 | 324.00 ± 23.04 | 351.00 ± 26.64 | no appreciable improvement | non-significant effect | no appreciable improvement | significant effects on reducing | significantly decreased | significantly decreased
